≈ marks a conversion by molar mass, not a printed value.
Columns and labels:
Assay in all cases: MIC, broth micro dilution assay (NCCLS)
Format in all cases: cell-based
[1] = system: Enterococcus faecalis A20688; settings: Mueller-Hinton medium, 35° C., 18 hours
Experimental: (§1) The serial broth dilution method used Mueller-Hinton medium except for the Streptococcus pneumoniae which was tested in 50% Mueller-Hinton medium and 50% Todd Hewitt medium. The final bacterial inoculate contained approximately 5×10^5 cfu/well and was run on microtiter plates. The volume of each well was 100 μL and the plates were incubated at 35° C. for 18 hours in ambient air. The MIC was defined as the lowest drug concentration that prevented visible growth.

[2] = system: Staphylococcus aureus A15090; settings: Mueller-Hinton medium, 35° C., 18 hours
Experimental: as §1

[3] = system: Streptococcus pneumoniae A28272; settings: 50% Mueller-Hinton medium and 50% Todd Hewitt medium, 35° C., 18 hours
Experimental: as §1

SMILES	MIC (μg/mL) Enterococcus faecalis A20688 [1]	MIC (μg/mL) Staphylococcus aureus A15090 [2]	MIC (μg/mL) Streptococcus pneumoniae A28272 [3]
C=C(NC(=O)c1csc(-c2nc3c(cc2OCCCS(=O)(=O)[O-])-c2nc(cs2)C(=O)NC(C(C)O)C(=O)N/C(=C(\C)OC)c2nc(cs2)C(=O)NC2c4nc(cs4)C(=O)NC(COC(=O)c4c5c6c(cccc6n4O)COC(=O)C(OC4CC(C)(O)C(N(C)C)C(C)O4)C2OC5)c2nc-3cs2)n1)C(N)=O.[Na+] (stereo not drawn) [Example 28]	32 µg/mL	2.0 µg/mL	0.25 µg/mL
C=C(NC(=O)c1csc(-c2nc3c(cc2OC(=O)C(C)(C)C(=O)OCc2ccccc2)-c2nc(cs2)C(=O)NC(C(C)O)C(=O)NC(=C(C)OC)c2nc(cs2)C(=O)NC2c4nc(cs4)C(=O)NC(COC(=O)c4c5c6c(cccc6n4O)COC(=O)C(OC4CC(C)(O)C(N(C)C)C(C)O4)C2OC5)c2nc-3cs2)n1)C(N)=O (stereo not drawn) [Example 31]	0.5 µg/mL (≈ 0.305 µM)	0.25 µg/mL (≈ 0.152 µM)	0.06 µg/mL (≈ 0.0365 µM)
C=C(NC(=O)c1csc(-c2nc3c(cc2OC(=O)c2ccc(Br)cc2)-c2nc(cs2)C(=O)NC(C(C)O)C(=O)NC(=C(C)OC)c2nc(cs2)C(=O)NC2c4nc(cs4)C(=O)NC(COC(=O)c4c5c6c(cccc6n4O)COC(=O)C(OC4CC(C)(O)C(N(C)C)C(C)O4)C2OC5)c2nc-3cs2)n1)C(N)=O (stereo not drawn) [Example 32]	1.0 µg/mL (≈ 0.617 µM)	1.0 µg/mL (≈ 0.617 µM)	0.015 µg/mL (≈ 0.00926 µM)
C=C(NC(=O)c1csc(-c2nc3c(cc2OP(=O)(OCc2ccccc2)OCc2ccccc2)-c2nc(cs2)C(=O)NC(C(C)O)C(=O)NC(=C(C)OC)c2nc(cs2)C(=O)NC2c4nc(cs4)C(=O)NC(COC(=O)c4c5c6c(cccc6n4O)COC(=O)C(OC4CC(C)(O)C(N(C)C)C(C)O4)C2OC5)c2nc-3cs2)n1)C(N)=O (stereo not drawn) [Example 34]	1.0 µg/mL (≈ 0.589 µM)	0.25 µg/mL (≈ 0.147 µM)	0.125 µg/mL (≈ 0.0736 µM)
C=C(NC(=O)c1csc(-c2nc3c(cc2OP(=O)(O)OCCCl)-c2nc(cs2)C(=O)NC(C(C)O)C(=O)NC(=C(C)OC)c2nc(cs2)C(=O)NC2c4nc(cs4)C(=O)NC(COC(=O)c4c5c6c(cccc6n4O)COC(=O)C(OC4CC(C)(O)C(N(C)C)C(C)O4)C2OC5)c2nc-3cs2)n1)C(N)=O (stereo not drawn) [Example 35]	1.0 µg/mL (≈ 0.633 µM)	1.0 µg/mL (≈ 0.633 µM)	0.03 µg/mL (≈ 0.019 µM)
C=C(NC(=O)c1csc(-c2nc3c(cc2O)-c2nc(cs2)C(=O)NC(C(C)O)C(=O)NC(=C(C)OC)c2nc(cs2)C(=O)NC2c4nc(cs4)C(=O)NC(COC(=O)c4c5c6c(cccc6n4OCCO)COC(=O)C(OC4CC(C)(O)C(N(C)C)C(C)O4)C2OC5)c2nc-3cs2)n1)C(N)=O (stereo not drawn) [Example 36]	0.25 µg/mL (≈ 0.169 µM)	0.25 µg/mL (≈ 0.169 µM)	0.007 µg/mL (≈ 0.00472 µM)
C=C(NC(=O)c1csc(-c2nc3c(cc2O)-c2nc(cs2)C(=O)NC(C(C)O)C(=O)NC(=C(C)OC)c2nc(cs2)C(=O)NC2c4nc(cs4)C(=O)NC(COC(=O)c4c5c6c(cccc6n4OCC(=O)OC)COC(=O)C(OC4CC(C)(O)C(N(C)C)C(C)O4)C2OC5)c2nc-3cs2)n1)C(N)=O (stereo not drawn) [Example 37]	0.06 µg/mL (≈ 0.0397 µM)	0.03 µg/mL (≈ 0.0199 µM)	0.001 µg/mL (≈ 0.000662 µM)
C=C(NC(=O)c1csc(-c2nc3c(cc2O)-c2nc(cs2)C(=O)NC(C(C)O)C(=O)NC(=C(C)OC)c2nc(cs2)C(=O)NC2c4nc(cs4)C(=O)NC(COC(=O)c4c5c6c(cccc6n4OCC4OC6OC(C)(C)OC6C6OC(C)(C)OC46)COC(=O)C(OC4CC(C)(O)C(N(C)C)C(C)O4)C2OC5)c2nc-3cs2)n1)C(N)=O (stereo not drawn) [Example 38]	0.03 µg/mL (≈ 0.0179 µM)	0.125 µg/mL (≈ 0.0744 µM)	0.001 µg/mL (≈ 0.000595 µM)
C=C(NC(=O)c1csc(-c2nc3c(cc2O)-c2nc(cs2)C(=O)NC(C(C)O)C(=O)NC(=C(C)OC)c2nc(cs2)C(=O)NC2c4nc(cs4)C(=O)NC(COC(=O)c4c5c6c(cccc6n4OCOP(=O)(OC(C)(C)C)OC(C)(C)C)COC(=O)C(OC4CC(C)(O)C(N(C)C)C(C)O4)C2OC5)c2nc-3cs2)n1)C(N)=O (stereo not drawn) [Example 40]	0.25 µg/mL (≈ 0.151 µM)	0.125 µg/mL (≈ 0.0753 µM)	0.015 µg/mL (≈ 0.00904 µM)
C=C(NC(=O)c1csc(-c2nc3c(cc2O)-c2nc(cs2)C(=O)NC(C(C)O)C(=O)NC(=C(C)OC)c2nc(cs2)C(=O)NC2c4nc(cs4)C(=O)NC(COC(=O)c4c5c6c(cccc6n4OCOP(=O)(OCC)OCC)COC(=O)C(OC4CC(C)(O)C(N(C)C)C(C)O4)C2OC5)c2nc-3cs2)n1)C(N)=O (stereo not drawn) [Example 41]	0.03 µg/mL (≈ 0.0187 µM)	0.015 µg/mL (≈ 0.00935 µM)	0.001 µg/mL (≈ 0.000624 µM)
C=C(NC(=O)c1csc(-c2nc3c(cc2O)-c2nc(cs2)C(=O)NC(C(C)O)C(=O)NC(=C(C)OC)c2nc(cs2)C(=O)NC2c4nc(cs4)C(=O)NC(COC(=O)c4c5c6c(cccc6n4OCCCNS(=O)(=O)c4cn(C)cn4)COC(=O)C(OC4CC(C)(O)C(N(C)C)C(C)O4)C2OC5)c2nc-3cs2)n1)C(N)=O (stereo not drawn) [Example 47]	0.25 µg/mL (≈ 0.153 µM)	0.06 µg/mL (≈ 0.0366 µM)	0.015 µg/mL (≈ 0.00915 µM)
C=C(NC(=O)c1csc(-c2nc3c(cc2O)-c2nc(cs2)C(=O)NC(C(C)O)C(=O)NC(=C(C)OC)c2nc(cs2)C(=O)NC2c4nc(cs4)C(=O)NC(COC(=O)c4c5c6c(cccc6n4OCCCN4CCN(C)CC4)COC(=O)C(OC4CC(C)(O)C(N(C)C)C(C)O4)C2OC5)c2nc-3cs2)n1)C(N)=O (stereo not drawn) [Example 50]	1.0 µg/mL (≈ 0.634 µM)	1.0 µg/mL (≈ 0.634 µM)	0.03 µg/mL (≈ 0.019 µM)
COC(C)=C1NC(=O)C(C(C)O)NC(=O)c2csc(n2)-c2cc(O)c(-c3nc(C(N)=O)cs3)nc2-c2csc(n2)C2COC(=O)c3c4c5c(cccc5n3OCCCS(=O)(=O)O)COC(=O)C(OC3CC(C)(O)C(N(C)C)C(C)O3)C(OC4)C(NC(=O)c3csc1n3)c1nc(cs1)C(=O)N2 (stereo not drawn) [Example 53]	1.0 µg/mL (≈ 0.671 µM)	0.25 µg/mL (≈ 0.168 µM)	0.125 µg/mL (≈ 0.0839 µM)

The next lines start with the values.

MIC (μg/mL) Enterococcus faecalis A20688 [1]	MIC (μg/mL) Staphylococcus aureus A15090 [2]	MIC (μg/mL) Streptococcus pneumoniae A28272 [3]	SMILES
1.0 µg/mL (≈ 0.669 µM)	0.25 µg/mL (≈ 0.167 µM)	0.06 µg/mL (≈ 0.0401 µM)	C=C(NC(=O)c1csc(-c2nc3c(cc2O)-c2nc(cs2)C(=O)NC(C(C)O)C(=O)NC(=C(C)OC)c2nc(cs2)C(=O)NC2c4nc(cs4)C(=O)NC(COC(=O)c4c5c6c(cccc6n4OCCCN)COC(=O)C(OC4CC(C)(O)C(N(C)C)C(C)O4)C2OC5)c2nc-3cs2)n1)C(N)=O (stereo not drawn) [Example 42]
0.25 µg/mL	0.125 µg/mL	0.03 µg/mL	C=C(NC(=O)c1csc(-c2nc3c(cc2O)-c2nc(cs2)C(=O)NC(C(C)O)C(=O)NC(=C(C)OC)c2nc(cs2)C(=O)NC2c4nc(cs4)C(=O)NC(COC(=O)c4c5c6c(cccc6n4OCCC(=O)[O-])COC(=O)C(OC4CC(C)(O)C(N(C)C)C(C)O4)C2OC5)c2nc-3cs2)n1)C(N)=O.[Na+] (stereo not drawn) [Example 44]
1.0 µg/mL (≈ 0.638 µM)	2.0 µg/mL (≈ 1.28 µM)	0.03 µg/mL (≈ 0.0191 µM)	C=C(NC(=O)c1csc(-c2nc3c(cc2O)-c2nc(cs2)C(=O)NC(C(C)O)C(=O)NC(=C(C)OC)c2nc(cs2)C(=O)NC2c4nc(cs4)C(=O)NC(COC(=O)c4c5c6c(cccc6n4OCOCC[Si](C)(C)C)COC(=O)C(OC4CC(C)(O)C(N(C)C)C(C)O4)C2OC5)c2nc-3cs2)n1)C(N)=O (stereo not drawn) [Example 45]
1.0 µg/mL (≈ 0.653 µM)	0.5 µg/mL (≈ 0.326 µM)	0.015 µg/mL (≈ 0.00979 µM)	C=C(NC(=O)c1csc(-c2nc3c(cc2O)-c2nc(cs2)C(=O)NC(C(C)O)C(=O)NC(=C(C)OC)c2nc(cs2)C(=O)NC2c4nc(cs4)C(=O)NC(COC(=O)c4c5c6c(cccc6n4OCCn4ccnc4)COC(=O)C(OC4CC(C)(O)C(N(C)C)C(C)O4)C2OC5)c2nc-3cs2)n1)C(N)=O (stereo not drawn) [Example 46]
2 µg/mL (≈ 1.3 µM)	1.0 µg/mL (≈ 0.651 µM)	0.03 µg/mL (≈ 0.0195 µM)	C=C(NC(=O)c1csc(-c2nc3c(cc2O)-c2nc(cs2)C(=O)NC(C(C)O)C(=O)NC(=C(C)OC)c2nc(cs2)C(=O)NC2c4nc(cs4)C(=O)NC(COC(=O)c4c5c6c(cccc6n4OCCCNC(=N)N)COC(=O)C(OC4CC(C)(O)C(N(C)C)C(C)O4)C2OC5)c2nc-3cs2)n1)C(N)=O (stereo not drawn) [Example 48]
0.25 µg/mL (≈ 0.156 µM)	0.5 µg/mL (≈ 0.312 µM)	0.007 µg/mL (≈ 0.00437 µM)	C=C(NC(=O)c1csc(-c2nc3c(cc2O)-c2nc(cs2)C(=O)NC(C(C)O)C(=O)NC(=C(C)OC)c2nc(cs2)C(=O)NC2c4nc(cs4)C(=O)NC(COC(=O)c4c5c6c(cccc6n4OCCCNS(=O)(=O)N(C)C)COC(=O)C(OC4CC(C)(O)C(N(C)C)C(C)O4)C2OC5)c2nc-3cs2)n1)C(N)=O (stereo not drawn) [Example 49]
0.125 µg/mL (≈ 0.0806 µM)	0.5 µg/mL (≈ 0.322 µM)	0.015 µg/mL (≈ 0.00967 µM)	C=C(NC(=O)c1csc(-c2nc3c(cc2O)-c2nc(cs2)C(=O)NC(C(C)O)C(=O)NC(=C(C)OC)c2nc(cs2)C(=O)NC2c4nc(cs4)C(=O)NC(COC(=O)c4c5c6c(cccc6n4OCCCN(CC)CC)COC(=O)C(OC4CC(C)(O)C(N(C)C)C(C)O4)C2OC5)c2nc-3cs2)n1)C(N)=O (stereo not drawn) [Example 51]
